From patent publication US20250108070A1, “METHOD FOR REPROGRAMMING CD8+ T CELLS TO ENHANCE THEIR THERAPEUTIC POTENTIAL AND APPLICATIONS THEREOF” (INSTITUT PASTEUR, priority 2022, published 2025) come the findings set out here.

For the experiment, the system named is CD8+ T cells from people without HIV. Put plainly: In vitro reprogramming of bulk CD8+ T cells, phenotype without further stimulation. Type of experiment: cell-based, human. The method, then:
FIG. 1. Induction of stem-like CD8^+ T cells with high survival capacity and polyfunctionality by in vitro reprogramming. A. CD8^+ T cells from people without HIV were incubated with medium, vehicle control, or a GSK3 inhibitor, for 12 hs and the phenotype was evaluated by flow cytometry. A representative donor from a total of 4 is shown. B. Frequencies of CD8^+ T cell subpopulations after each treatment. C. Fold change of CD8^+ T cell subpopulations after treatment with vehicle control or a GSK3 inhibitor, relative to medium alone condition (n=4). D. Expression of TCF-1 in CD8^+ T cell subpopulations (n=4). E. The expression of the indicated markers in cells pre-treated with vehicle control or a GSK3 inhibitor was evaluated by flow cytometry. The fold change in the expression induced by 48 hs anti-CD3/CD28 stimulation, relative to unstimulated cells, is shown (n=5). F. Left: Flow cytometry analysis of dead cells (Aqua Live/Dead^+) among total and T-bet+CD8^+ T cells. Right: Fold change in dead CD8^+ T cells induced by anti-CD3/CD28 stimulation, relative to the unstimulated condition (n=5). G. Frequencies of granzyme B^+, TL-2^+, IFN-γ^+, and TNF-α^+CD8^+ T cells after anti-CD3/CD28 stimulation. H. Expression of 1 to 4 functions in CD8^+ T cells after anti-CD3/CD28 stimulation (n=5). I. After reprogramming with the GSK3 inhibitor, CD8^+ T cells were stimulated for 48 hs with anti-CD3/CD28, followed by wash and resting for 5 days. Then, cells were restimulated for another 48 hs with anti-CD3/CD28. Left: Flow cytometry analysis of proliferating (CFSE dilution) CD8^+ T cells. Right: Frequencies of CD8^+ T cells with 0, 1-3 or ≥4 cell divisions (n=9). J. Frequency of the total HCMV pp65-specific CD8^+ T cell response (IFN-γ^+ or CD107a^+ or TNF-α^+), after vehicle control or GSK3 inhibitor treatment, followed by HCMV pp65 peptides stimulation for 6 hs (n=6). K. Frequencies of CD8^+ T cell subpopulations among HCMV pp65-specific CD8^+ T cells (n=6). L. Expression of IFN-γ, CD107a, and TNF-α in HCMV pp65-specific CD8^+ T cells (n=6). M. Frequency of the total HCMV pp65-specific CD8^+ T cell response after HCMV pp65 peptides stimulation for 6 days (n=6). *P<0.05; **P≤0.01. NS: Not statistically significant. TSCM: Stem cell memory; TCM: Central memory; TTM: Transitional memory; TEM: Effector memory; TTE: Terminal effector.
FIG. 2. A. Flow cytometry gating strategy used to identify CD8^+ T cell subpopulations: Naïve, Stem cell memory (TSCM), Central memory (TCM), Transitional memory (TTM), Effector memory (TEM), and Terminal effector (TTE). B. Expression of CCR7, CD27 and TCF-1 in total CD8^+ T cells after treatment with vehicle control, or the GSK3 inhibitors BIO or TWS119, for 12 hs. The median fluorescence intensity of each marker is depicted. C. Fold change in TSCM, TCM and TEM cells induced by BIO or TWS119, relative to vehicle control (n=3 people without HIV). D. Fold change in T-bet^+ cells among TSCM and TCM induced by anti-CD3/CD28 stimulation, relative to vehicle control, in cells previously treated with vehicle control, BIO or TWS119 (n=3). E. Fold change in T-bet^+ cells among naïve/TSCM induced by anti-CD3/CD28 stimulation (0.2 and 1 μg/mL), relative to unstimulated cells, previous treatment with vehicle control or the GSK3 inhibitor (n=3). F. Fold change in T-bet^+ cells among each CD8^+ T cell subpopulation induced by anti-CD3/CD28+ICAM-1 stimulation, relative to unstimulated cells (n=5). G. Frequency of IL-2^+TNF-α^+ cells among each CD8^+ T cell subpopulation after anti-CD3/CD28+ICAM-1 stimulation (n=5). H. Correlation between the frequency of PD-1^+LAG-3^+TIM3^+TIGIT^+CD8^+ T cells and the proportion of CD8^+ T cells with ≥4 cell divisions after restimulation (n=6). I. After reprogramming with the GSK3 inhibitor, CD8^+ T cells were left unstimulated, stimulated once for 48 hs with anti-CD3/CD28, or stimulated twice with anti-CD3/CD28. The expression of T-bet in TCM and TTM cells is shown (n=5). *P<0.05. […]

Where [1] appears, read: BIO and TWS119 in parallel, 3 μM, 12 hs, FIG. 2C.

SMILES strings stand for the structures.

With `O=C1Nc2cc(Br)ccc2/C1=C1/Nc2ccccc2/C1=N\O` [BIO, 6-bromoindirubin-3′-oxime], the “expression of TCF-1” value (3 μM, 12 hs, FIG. 1D) was “enhanced expression”. For the same compound, for the setting “3 μM, 12 hs, FIGS. 1A-C”, the “CD8+ T cells with stem cell memory (TSCM) and central memory (TCM) phenotype” value is listed as “enrichment”; the “effector memory (TEM) and terminal effector (TTE) cells” value is on record as “decrease”. In addition, where the note is “3 μM, 12 hs, absence of further stimulation, FIG. 1A”, the “surface expression of CCR7 and CD27” value was “upregulation”. Also, the “CCR7, CD27, and TCF-1” value (BIO and TWS119 in parallel, 3 μM, 12 hs, FIG. 2B) was “induced”. For the same compound, under setting [1], the TEM cells result is given as “decrease”; the “TSCM and TCM cells” value is recorded as “increase”. Moreover, the “effect compared between the two GSK3 inhibitors” value (FIGS. 2B and C) was “greater effect than TWS119”.
